# From patent US5958719A, “Method for the determination of the activity of specific phosphotyrosine phosphatases and specific effectors thereof in intact cells” (Max-Planck Gesellschaft Zur Foderung der Wissenschaften E.V., priority 1995, dated 1999)
# Entries after “also recorded” stand apart in the source; their conditions may differ.
# Experiments:
# [1] = test system: PDGF receptor PTK; test: Inhibition of PDGF receptor PTK (PDGF-induced receptor autophosphorylation, anti-phosphotyrosine immunoblot) in Swiss 3T3 cells; type: cell-based, mouse; conditions: AG1296 50 μM, 2 min preincubation, then PDGF-BB 100 ng/ml 5 min
# From the text: (§1) Swiss 3T3 fibroblasts (mouse) express PDGFα and PDGFβ receptors on the cell surface (Hosang et al. (1989)). Stimulation of the cells with PDGF leads to a rapid autophosphorylation of these receptors at tyrosine residues. This autophosphorylation can be detected in immunoblots using anti-phosphotyrosine antibodies after immunoprecipitation of the receptors and can be detected in unfractionated cell lysates. The autophosphorylated receptors are rapidly dephosphorylated by PDGF receptor-directed PTPase(s) (Bohmer et al. (1993)). The identity of the cellular PTPases which catalyse this reaction is not known. […] If the inhibitor is added to cells after activation of the PDGF receptor PTK, the dephosphorylation of the PDGF receptor can be monitored over time. (FIG. 3).
# Confluent, resting Swiss 3T3 cells were incubated as stated for various periods in serum-free cell culture medium without supplements (lanes 1, 2) or with the PDGF receptor PTK inhibitor AG1296 (final concentration 50 μM) (lanes 3-6). Then human recombinant PDGF-BB (final concentration 100 ng/ml) (lanes 2-6) or the corresponding solvent (lane 1) was added and the incubation was continued for 5 minutes.
# [2] = test system: PDGF receptor-directed PTPase(s); test: PDGF receptor-directed PTPase activity (dephosphorylation of autophosphorylated PDGF receptor) in isolated Swiss 3T3 cell membranes; type: biochemical, mouse; conditions: AG1296 50 μM, 30 min incubation, 10 mM EDTA
# From the text: as §1
# Isolated Swiss 3T3 cell membranes (10 μg protein per lane) were treated for 20 minutes on ice with PDGF (2 μg/ml). The activated PDGF receptor PTK was then autophosphorylated by adding 3 mM (final concentration) ATP. The kinase reaction was inhibited by addition of 10 mM EDTA. At the same time AG1296 (50 μM) (B) or the corresponding solvent (DMSO) (A) was added. The phosphotyrosine content of the PDGF receptor was measured in a similar manner to that described in FIG. 1 immediately after addition of the agents (0 min) or after 30 min incubation. […]
# [3] = test system: PDGF receptor; test: PDGF receptor dephosphorylation over time in intact PDGF-stimulated Swiss 3T3 cells after addition of PTK inhibitor; type: cell-based, mouse; conditions: AG1296 50 μM added after 5 min PDGF stimulation; intact Swiss 3T3 cells
# From the text: as §1
# Swiss 3T3 cells were treated in serum-free medium with PDGF (FIG. 3, lanes 2-6) or the corresponding solvent (FIG. 3, lane 1). After 5 minutes stimulation AG1296 (50 μM, FIG. 3B) or the corresponding solvent (DMSO, FIG. 3 A) was added. The phosphotyrosine content of the PDGF receptor was examined in the cells thus treated at the stated various time points. […] This decrease is caused by the activity of the PDGF receptor-directed PTPase in the intact cells.
# [4] = test system: NGF receptor PTK (Trk); test: Inhibition of NGF receptor PTK (NGF-induced TrkA autophosphorylation, immunoprecipitation and anti-phosphotyrosine immunoblot) in PC12 cells; type: cell-based, rat; conditions: K252a 1 μM, 2 min (short) preincubation, then NGF 150 ng/ml 10 min; PC12 cells overexpressing TrkA
# From the text: (§2) PC 12 cells (rat pheochromocytoma cells) which overexpress NGF receptors (Trk A) (Obermeier et al. (1994)) were used for the experiments shown. Stimulation of the cells with NGF leads to a rapid autophosphorylation of these receptors at tyrosine residues. This autophosphorylation can be detected in immunoblots using anti-phosphotyrosine antibodies after immunoprecipitation of the receptors. The identity of the cellular PTPases which dephosphorylate autophosphorylated NGF receptors is not known.
# PC12 cells that overexpress TrkA were incubated as stated for various periods in serum-free cell culture medium without supplements (lanes 1, 2) or with the NGF receptor PTK inhibitor K252a (final concentration 1 μM) (lanes 3-6). Then NGF (final concentration 150 ng/ml) (lanes 2-6) or the corresponding solvent (lane 1) was added and the incubation was continued for 10 minutes.
# [5] = test system: NGF receptor; test: NGF receptor dephosphorylation over time in intact NGF-stimulated TrkA-transfected PC12 cells after addition of PTK inhibitor; type: cell-based, rat; conditions: K252a 1 μM added after 10 min NGF stimulation; intact PC12 cells transfected with TrkA
# From the text: as §2
# PC12 cells transfected with TrkA were treated in serum-free medium with NGF (lanes 2-6) or the corresponding solvent (lane 1). After a 10 minute stimulation, K252a (1 μM, B) or the corresponding solvent (DMSO, A) was added. At the stated various time points the cells treated correspondingly were tested as described in FIG. 1 and the phosphotyrosine content of the NGF receptors was examined. […] This decrease is caused by the activity of the NGF receptor-directed PTPase in the intact cells.
# [6] = test system: NGF receptor PTK; conditions: Ohmichi et al (1992); Tapley et al (1992); cited from earlier work
# [7] = test system: PDGF receptor-directed PTPase(s); type: cell-based, mouse
structure (smiles),measurement,setting,value
COc1cc2ncc(-c3ccccc3)nc2cc1OC [AG1296],inhibition of PDGF receptor PTK activity / PDGF-induced receptor autophosphorylation,[1],completely inhibits its activity; also recorded: completely suppressed
same,influence on PDGF receptor-directed PTPase activity (dephosphorylation),[2],does not influence the activity of the PTPase(s); also recorded: does not inhibit; also recorded: does not influence this dephosphorylation
same,phosphotyrosine content of the PDGF receptor over time,[3],continuously decreases
COC(=O)C1(O)CC2OC1(C)n1c3ccccc3c3c4c(c5c6ccccc6n2c5c31)C(=O)NC4 (centres unmarked) [K252a],inhibition of Trk receptor PTK activity / NGF-induced receptor autophosphorylation,[4],completely inhibits the activity; also recorded: completely suppressed
same,phosphotyrosine content of the NGF receptor over time,[5],very rapid dephosphorylation; also recorded: decreases significantly
same,specificity of inhibition of NGF receptor PTK and PTK of other neurotrophin receptors,[6],specific inhibitor of the NGF receptor PTK
CNc1ccc2oc(CC3OC4(CCC3C)OC(C(C)C(=O)c3ccc[nH]3)C(C)CC4C)nc2c1C(=O)O (centres unmarked) [A23187],action on PTPases which specifically dephosphorylate the PDGF receptor,[7],activator
same,Relative PDGF receptor-directed PTPase activity (% of control),"[7]; swiss 3t3 cells, 5 min, 1 µM",161 % of control
